pEC50: −log10 of the molar value. Like-named read-outs stand apart in the source and are kept apart here.
What was measured:
HeLa MKYP cells [1] = experiment: Human mitophagy assay (HeLa MKYP, mtKeima FACS, FCCP/oligomycin); type: cell-based; settings: for EC50: Table 3 Supplement A, as measured in Table 3, read-out: Potency (EC50 Max Mitophagy) (μM)*
Method: (§1) Briefly, HeLa MKYP cells were plated at 10,000 cells/well in 96 well plates along with compounds at various concentrations. Following 16 hrs of incubation, cells were treated with 1 uM FCCP/oligomycin for 6 hours, then analyzed via FACS for the presence of mitochondria in lysosomes (as determined by an emissions spectrum shift from the pH-sensitive mtKeima tag). Examples are shown in FIG. 1 through FIG. 13 below.

HeLa MKYP cells [2] = experiment: Toxicity / cell death measured by DAPI staining (take-up); type: cell-based
Method: H2O2 treatment was performed as a control for cell death as measured by DAPI staining.
as §1, with “tag).” for “tag). Examples are shown in FIG. 1 through FIG. 13 below.”

[3] = Visual inspection of crystallization; type: physicochemical; parameters: key: 1: yes crystals; 0: no crystals; settings: Tables 5A-5D
Method: (§2) Briefly, the Hela MKYP (Mito-Keima/YFP-Parkin) cells were seeded at 10K cells/well. EP/MTK compounds were added at seeding (cells were still in suspension). The cells were incubated with the EP/MTK compounds for 16 hours, then 1 μM FCCP/oligomycin was added for 6 hours. Prior to harvesting, cells were scored by eye under 20× magnification for the presence or absence of crystalline or aggregated compound, or round cells.

[4] = tested on: Hela MKYP (Mito-Keima/YFP-Parkin) cells; experiment: Inspection of round cells; settings: Tables 6A-6D
Method: as §2

[5] = Homo sapiens, HeLa, Table 3, read-out: Potency at 1 μM F/O toxin* (EC50 of mitophagy activation)

SMILES	pEC50 (HeLa MKYP cells [1]; [5])	EC50 (HeLa MKYP cells [1]; Homo sapiens, HeLa)	Toxicity (% positive for DAPI takeup @ 50 μM) (HeLa MKYP cells [2]; Table 3)	Toxicity (% positive for DAPI take-up at 50 μM)* (HeLa MKYP cells [2]; Table 3 Supplement A)	other results
C[C@H](Nc1ncnc2[nH]cnc12)c1ccccc1 [Compound 27]	5.70	2.09 µM	11.7%	13.52%	Visual inspection of crystallization ([3]; 1.6 μM): 0; Visual inspection of crystallization ([3]; 3.1 μM): 0; Visual inspection of crystallization ([3]; 6.3 μM): 0; Visual inspection of crystallization ([3]; 12.5 μM): 0; Visual inspection of crystallization ([3]; 25.0 μM): 0; Visual inspection of crystallization ([3]; 50.0 μM): 0; Inspection of round cells ([4]; 1.6 μM): 0; Inspection of round cells ([4]; 3.1 μM): 0; Inspection of round cells ([4]; 6.3 μM): 0; Inspection of round cells ([4]; 12.5 μM): 0; Inspection of round cells ([4]; 25.0 μM): 0; Inspection of round cells ([4]; 50.0 μM): 0
CC(Nc1ncnc2[nH]c(C3CC3)nc12)c1ccccc1 (centres unmarked) [Compound 28]	5.20	6.32 µM	18.3%	18.26%	Visual inspection of crystallization ([3]; 1.6 μM): 0; Visual inspection of crystallization ([3]; 3.1 μM): 0; Visual inspection of crystallization ([3]; 6.3 μM): 0; Visual inspection of crystallization ([3]; 12.5 μM): 0; Visual inspection of crystallization ([3]; 25.0 μM): 0; Visual inspection of crystallization ([3]; 50.0 μM): 0; Inspection of round cells ([4]; 1.6 μM): 0; Inspection of round cells ([4]; 3.1 μM): 0; Inspection of round cells ([4]; 6.3 μM): 0; Inspection of round cells ([4]; 12.5 μM): 0; Inspection of round cells ([4]; 25.0 μM): 0; Inspection of round cells ([4]; 50.0 μM): 0
C[C@@H](Nc1ncnc2[nH]c(C(F)(F)F)cc12)c1ccccc1 [Compound 38]	5.51	3.62 µM	63.7%	52.58%	Visual inspection of crystallization ([3]; 1.6 μM): 0; Visual inspection of crystallization ([3]; 3.1 μM): 0; Visual inspection of crystallization ([3]; 6.3 μM): 0; Visual inspection of crystallization ([3]; 12.5 μM): 0; Visual inspection of crystallization ([3]; 25.0 μM): 0; Visual inspection of crystallization ([3]; 50.0 μM): 0; Inspection of round cells ([4]; 1.6 μM): 0; Inspection of round cells ([4]; 3.1 μM): 0; Inspection of round cells ([4]; 6.3 μM): 0; Inspection of round cells ([4]; 12.5 μM): 0; Inspection of round cells ([4]; 25.0 μM): 0; Inspection of round cells ([4]; 50.0 μM): 1
CCC(Nc1ncnc2[nH]c(C(F)(F)F)cc12)c1cncnc1 (centres unmarked) [Compound 43]	4.73	18.8 µM	15.9%	15.86%	Visual inspection of crystallization ([3]; 1.6 μM): 0; Visual inspection of crystallization ([3]; 3.1 μM): 0; Visual inspection of crystallization ([3]; 6.3 μM): 0; Visual inspection of crystallization ([3]; 12.5 μM): 0; Visual inspection of crystallization ([3]; 25.0 μM): 0; Visual inspection of crystallization ([3]; 50.0 μM): 0; Inspection of round cells ([4]; 1.6 μM): 0; Inspection of round cells ([4]; 3.1 μM): 0; Inspection of round cells ([4]; 6.3 μM): 0; Inspection of round cells ([4]; 12.5 μM): 0; Inspection of round cells ([4]; 25.0 μM): 0; Inspection of round cells ([4]; 50.0 μM): 0
C[C@H](Nc1ncnc2[nH]c(C(F)(F)F)cc12)c1cncnc1 [Compound 44]	5.51	3.15 µM	–	–	Toxicity (% positive for DAPI take-up at 50 μM)* (HeLa MKYP cells [2]; human): 23.68%; Toxicity (% positive for DAPI takeup @ 50 μM) (HeLa MKYP cells [2]; human): 23.7%; Visual inspection of crystallization ([3]; 1.6 μM): 0; Visual inspection of crystallization ([3]; 3.1 μM): 0; Visual inspection of crystallization ([3]; 6.3 μM): 0; Visual inspection of crystallization ([3]; 12.5 μM): 0; Visual inspection of crystallization ([3]; 25.0 μM): 0; Visual inspection of crystallization ([3]; 50.0 μM): 0; Inspection of round cells ([4]; 1.6 μM): 0; Inspection of round cells ([4]; 3.1 μM): 0; Inspection of round cells ([4]; 6.3 μM): 0; Inspection of round cells ([4]; 12.5 μM): 0; Inspection of round cells ([4]; 25.0 μM): 0; Inspection of round cells ([4]; 50.0 μM): 0
C[C@@H](Nc1ncnc2[nH]cnc12)c1ccccc1 [Compound 63]	–	–	11.5%	–	pEC50 (HeLa MKYP cells [1]; Table 3, read-out: Potency at 1 μM F/O toxin* (EC50 of mitophagy activation)): 4.32; EC50 (HeLa MKYP cells [1]): > 25 µM; Toxicity (% positive for DAPI take-up at 50 μM)* (HeLa MKYP cells [2]; Table 3 Supplement A, listed as EP-0036422): 11.51%
C[C@@H](Nc1nccc2[nH]cnc12)c1ccccc1 [Compound 64]	< 4.30	> 25 µM	7.6%	7.63%	–
CC(CNc1ncnc2[nH]cnc12)c1ccccc1 (centres unmarked) [Compound 65]	5.44	3.61 µM	28.9%	28.92%	–
c1ccc(C2(Nc3ncnc4[nH]cnc34)CC2)cc1 [Compound 72]	< 4.30	> 25 µM	13.4%	13.38%	–
Cc1nc2c(N[C@H](C)c3ccccc3)ncnc2[nH]1 [Compound 73]	< 4.30	> 25 µM	9.7%	9.69%	–
Cc1nc2c(N[C@@H](C)c3ccccc3)ncnc2[nH]1 [Compound 74]	5.34	4.65 µM	31.9%	31.93%	–
OC[C@H](Nc1ncnc2[nH]cnc12)c1ccccc1 [Compound 75]	5.46	3.48 µM	14.5%	14.49%	–
OC[C@H](Nc1ncnc2[nH]c(C(F)(F)F)cc12)c1ccccc1 [Compound 76]	4.83	14.7 µM	30.4%	30.45%	–
OC[C@@H](Nc1ncnc2[nH]c(C(F)(F)F)cc12)c1ccccc1 [Compound 77]	5.36	4.41 µM	30.3%	30.27%	–
FC(F)(F)c1cc2c(NC3CCN(Cc4ccccc4)CC3)ncnc2[nH]1 [Compound 78]	4.67	21.4 µM	43.9%	43.86%	–
O=S1(=O)Cc2ccccc2C(Nc2ncnc3[nH]c(C(F)(F)F)cc23)C1 (centres unmarked) [Compound 79]	< 4.30	> 25 µM	13.2%	13.18%	–
CN1CC[C@H](Nc2ncnc3[nH]c(C(F)(F)F)cc23)c2ccccc21 [Compound 80]	5.72	1.81 µM	28.1%	8.7%	–
c1ccc2c(c1)OCC[C@H]2Nc1ncnc2[nH]c(C3CC3)cc12 [Compound 111]	5.70	–	17.3%	–	pEC50 (HeLa MKYP cells [1]; Homo sapiens, HeLa, Table 3 Supplement B, read-out: Mitophagy EC50 (HeLa mKeima assay)): 5.70; Max cell death at 25 uM compound, 1 uM FO (HeLa MKYP cells [2]; Table 3 Supplement B, 25 uM compound, 1 uM FO): 17.3%; Cell death at 25 μM (no FO) (HeLa MKYP cells [2]; Table 3 Supplement B, 25 μM, no FO): 7.26%
CCCCNc1ncnc2[nH]c(C3CC3)nc12 [Compound 34886, N-butyl-8-cyclopropyl-9H-purin-6-amine]	–	–	–	–	pEC50 (HeLa MKYP cells [1]; Homo sapiens, HeLa, Table 4, read-out: Potency (EC50 Max Mitophagy)): 5.04; Toxicity (% positive for DAPI takeup @ 50 μM) (HeLa MKYP cells [2]; Table 4): 9.1%
c1coc(CNc2ncnc3[nH]c(C4CCC4)nc23)c1 [EP-0035338, 8-cyclobutyl-N-(2-furylmethyl)-9H-purin-6-amine]	–	> 25 µM	–	3.04%	–
CCCCNc1ncnc2[nH]c(C3CCC3)nc12 [EP-0035339, N-butyl-8-cyclobutyl-9H-purin-6-amine]	–	> 25 µM	–	6.13%	–
COc1cc(CNc2ncnc3[nH]c(C4CC4)nc23)ccn1 [EP-0036032, 8-cyclopropyl-N-[(2-methoxy-4-pyridyl)methyl]-9H-purin-6-amine]	–	> 25 µM	–	7.06%	–
c1ncc(CNc2ncnc3[nH]c(C4CC4)nc23)cn1 [EP-0036050, 8-cyclopropyl-N-(pyrimidin-5-ylmethyl)-9H-purin-6-amine]	–	> 25 µM	–	–	Toxicity (% positive for DAPI take-up at 50 μM)* (HeLa MKYP cells [2]; human): 7.06%
